# pIC50: −log10 of the molar value. Like-named read-outs stand apart in the source and are kept apart here.
# Tests used:
# [1] = test system: gp120-mediated syncytium formation; assay: Inhibition of gp120-mediated syncytium formation (HL2/3 and HeLa-CD4-LTR-β-gal cells); conditions: 48 hours; PIC 024.4 based on 100% polymer by weight
# Description: The effect of test compound on syncytium formation was evaluated using an assay developed by Dr. George Pavlakis and coworkers (Ciminale, V. et al., AIDS Res. Hum. Retro-viruses 6:1281-1287 (1990)). […] The cultures were then incubated in the presence of drug for 48 hours at 37° C., fixed and stained with X-gal. Blue syncytia were counted using an inverted microscope, and percent inhibition and IC50 values were calculated.
# HIV-1 (JR-CSF) = format: cell-based
# HIV-1 14aPre = assay: Drug combination studies, neutralization of HIV-1 14aPre; format: cell-based
# HIV-1 (ADA) = assay: microbe, parasite or virus in culture; format: cell-based; conditions: Human immunodeficiency virus 1, Monocyte, monocytes
# [2] = target: T1, 19Thy binding to recombinant sCD4 (Homo sapiens, UniProt P01730); assay: Inhibition of monoclonal antibody 19Thy binding to CD4 (ELISA); conditions: antibody 30 ng/ml; read-out: IC50 MAb binding inhibition, 19Thy (converted)
# T1 construct: Plates coated with recombinant, soluble CD4 were treated with antibody
# Description: (§1) A panel of related ELISA systems was used to evaluate the effect of test compounds on the binding of various monoclonal antibodies to recombinant sCD4 absorbed on plastic. Two of these antibodies, Leu3A and 19Thy, are directed against gp120 binding site on CD4. […] The ELISA formats were similar to those used to measure gp120 binding to CD4. Plates coated with recombinant, soluble CD4 were treated with antibody (30 ng/ml) and serial dilutions of drug. After incubation and washing, bound antibody was detected using an appropriate isotype-specific anti-immunoglobulin alkaline phosphatase conjugate.
# [3] = target: T2, Leu3A binding to recombinant sCD4 (Homo sapiens, UniProt P01730); assay: Inhibition of monoclonal antibody Leu3A binding to CD4 (ELISA); conditions: antibody 30 ng/ml; read-out: IC50 MAb binding inhibition, Leu3A (converted)
# T2 construct: Plates coated with recombinant, soluble CD4 were treated with antibody
# Description: as §1
# gp120/CD4 = target: T3, gp120/CD4 (Homo sapiens, UniProt P01730); assay: biochemical; format: binding
# T3 construct: recombinant, soluble four-domain CD4 (sCD4) expressed in insect cells; host or cells: insect cells (sCD4)
# Description: Polystyrene 96-well microtiter plates were treated with a 1 μg/ml solution of recombinant, soluble four-domain CD4 (sCD4) expressed in insect cells (100 μl/well) and allowed to incubate for two hours at room temperature. Plates were blocked for two hours at 4° C. with phosphate-buffered saline (PBS) containing 0.05% Tween-20 and 10 mg/ml bovine serum albumin (PBSTB, 200 μl/well), and then washed five times with PBS containing 0.05% Tween-20. Fifty microliters of 60 ng/ml recombinant gp120 (IIIB isolate) and 50 μl of each drug dilution in PBSTB were added to duplicate wells, and the plate was incubated overnight at 4° C. The plate was then washed five times with PBST and treated with a 210 μg/ml solution of monoclonal antibody NEA 9205 (100 gp120-III/well). This antibody recognizes the V3 loop region of gp120-IIIB. After incubation for 2 hours at 4° C., the plate was washed five times with PBST and treated with an anti-mouse IgGl antibody conjugated to alkaline phosphatase. After an additional incubation for 1 hour at 4° C., the plate was washed five times with PBST, treated with a p-nitrophenyl phosphate substrate solution, incubated for about 30 minutes at room temperature, and monitored for color development at 405 nm. […]
# [4] = target: T4, OKT4 binding to recombinant sCD4 (Homo sapiens, UniProt P01730); assay: Inhibition of monoclonal antibody OKT4 binding to CD4 (ELISA); conditions: antibody 30 ng/ml
# T4 construct: Plates coated with recombinant, soluble CD4 were treated with antibody
# Description: as §1
# HIV-1, strain HTLV-IIIB = format: cell-based; conditions: CEM-T4 cells, day 8; PIC 024.4 30% polymer by weight
# Description: Dilutions were prepared in culture medium, and the compound was tested at concentrations ranging from 100 μg/ml to 0.003 μg/ml in half-log10 dilutions.
# The assay was done in 96-well tissue culture plates using the CEM-T4 human T-lymphocyte cell line. The culture medium used was RPMI-1640 medium containing 25 mM N-[2-Hydroxyethyl]piperazine-n^1-[2-ethanesulfonic acid] (HEPES, Sigma Chemical Co.) and 2 mM L-glutamine, and supplemented with 10% fetal bovine serum, 2 mM L-glutamine, 50 units of penicillin G per ml, and 50 μg streptomycin sulfate per ml. CEM-T4 cells were treated with polybrene at a concentration of 2 μg/ml, and a 130 μl volume of cells (1×10^4 cells) was dispensed into each well. To one assay plate for each drug a 50 μl volume of each drug dilution (prepared as a 4×concentration) was added to five wells of cells, and the cells were incubated at 37° C. for two hours. […]
# On the eighth day post-infection, the cells in each well were suspended and a 50-μl sample of each cell suspension was transferred to a new 96-well plate for use in the following assay. […] The absorbance at 590 nm was determined for each sample using a Molecular Devices Vmax microplate reader. […] When a dose-dependent effect for either CPE-inhibition or toxicity was seen, values for the 50% effective dose were calculated using the dose-effect analysis software of Chou and Chou (Elsevier-Biosoft).
# [5] = target: T5, gp120 binding to CD4 receptor on lymphocytes in whole blood (Homo sapiens, UniProt P01730); format: cell-based; conditions: gp120-biotin 10 nM
# T5 construct: the CD4 receptor expressed on the surface of lymphocytes in whole blood; from tissue; host or cells: freshly collected anticoagulated whole blood from normal donors
# Description: This assay was used to measure the ability of test compounds to inhibit the binding of recombinant gp120 to the CD4 receptor expressed on the surface of lymphocytes in whole blood. Freshly collected, anticoagulated whole blood from normal donors (100 μl per tube) was treated with test compound and incubated for 2 hours at room temperature. The tubes were then treated with gp120-biotin (American Bio-Technology Products) to a final concentration of 10 nM, and incubated for an additional 3 hours at room temperature. Cells were then stained with fluorescein-labeled streptavidin (Becton Dickinson), treated with lysis buffer (Becton Dickinson), and washed with PBS containing 0.1% azide. Cells were then subjected to flow cytometric analysis on a FACScan™ flow cytometer (Becton Dickinson) and the mean fluorescence for the lymphocyte population was measured. Percent inhibition of fluorescence was determined relative to cells that were not treated with drug.
# gp120 (SF2 isolate)/sCD4 = target: T6, gp120 (SF2 isolate)/sCD4 (Homo sapiens, UniProt P01730); format: binding
# T6 construct: recombinant sCD4 was immobilized to the sensor surface
# Text: This assay provided a direct measure of the ability of test compounds to inhibit the gp120/CD4 binding interaction. The BIAcore™ biosensor (Pharmacia Biosensor) allows for real-time interaction analysis without the need for labeling (Jonsson et al., BioTechniques 11:620-627 (1991); Malmquist, Nature 361:186-198 (1993)). Its operation is based on optical surface plasmon resonance (SPR) for detecting small changes in the refractive index on the surface of a thin gold film coated with a dextran matrix to which one ligand is immobilized. In the experiments described here, recombinant sCD4 was immobilized to the sensor surface by a standard amine coupling chemistry. Recombinant gp120 (SF2 isolate), alone or in the presence of test compound, was passed over the surface, and binding monitored by a change in “resonance units” (RU's). Percent inhibition was determined relative to RU levels observed in the absence of drug. A correction was made to account for the mass of the test article.
# monocytotropic isolates = conditions: cited from earlier work
# [6] = target: T7, gp120 binding to CD4 receptor on CEM cells (Homo sapiens, UniProt P01730); format: cell-based; conditions: recombinant gp120 (IIIB) 10 nM; PIC 024.4 based on 100% polymer by weight
# T7 construct: the CD4 receptor expressed on the surface of lymphocytic cells; endogenous in cells; host or cells: CEM cells
# Description: This assay was used to measure the ability of test compounds to inhibit the binding of recombinant gp120 to the CD4 receptor expressed on the surface of lymphocytic cells. Cells of the CEM line (a CD4+ human T cell leukemia line) were suspended at 3×10^6 cells/ml in RPMI 1640 medium supplemented with 10% fetal bovine serum (FBS) containing 0.002% sodium azide, and 100 μl was aliquoted to individual assay tubes. Serial dilutions of test compound in water were added (10 μl/tube) and the tubes incubated for 2 hours at 25° C. Next, recombinant gp120 (IIIB isolate) diluted in RPMI 1640 buffer was added to a final concentration of 10 nM (1.2 μg/ml) and the tubes incubated overnight at 37° C. Cells were then washed thoroughly with PBS containing 10% FBS and 0.01% sodium azide. V3-specific monoclonal antibody NEA9284 was added to a concentration of 1 μg/ml and incubated for 30 minutes on ice. The cells were washed thoroughly as before and stained with fluorescein-labeled goat anti-mouse immunoglobulin for 30 minutes on ice. The washed cells were analyzed for mean fluorescence on a FACScan™ flow cytometer (Becton Dickinson). Percent inhibition of fluorescence was determined relative to cells that were not treated with drug.
# IIIB = conditions: cited from earlier work
compound,measurement,setting,value
"Cc1cn([C@H]2C[C@H](N=[N+]=[N-])[C@@H](CO)O2)c(=O)[nH]c1=O [AZT, zidovudine]",IC50 syncytium inhibition (HL2/3),[1],inactive
same,p24 levels,"HIV-1 (JR-CSF); 0.004-50 μM, drug added 2 hours prior to infection",substantially reduced
same,"Antiviral Activity ID50, JR-CSF","HIV-1 (JR-CSF); PHA blasts, PIC 024.4 30% polymer by weight",0.001 µg/mL
same,Table 8 readout of HIV-1 14aPre growth,HIV-1 14aPre; AZT 0.005 μM alone,25
same,Table 8 readout of HIV-1 14aPre growth,HIV-1 14aPre; AZT 0.01 μM alone,17.5
same,Table 8 readout of HIV-1 14aPre growth,HIV-1 14aPre; AZT 0.02 μM alone,9.8
same,EC50,"HIV-1 (ADA); 168 h, read-out: EC50, Day 7",0.005 µg/mL
same,EC90,"HIV-1 (ADA); 168 h, read-out: EC90, Day 7",0.02 µg/mL
same,EC50,"HIV-1 (ADA); 336 h, read-out: EC50, Day 14",0.003 µg/mL
same,EC90,"HIV-1 (ADA); 336 h, read-out: EC90, Day 14",0.01 µg/mL
O=C(O)C1=CC(=C(c2ccc(O)c(C(=O)O)c2)c2ccc(O)c(C(=O)O)c2)C=CC1=O [Aurintricarboxylic acid],IC50,[2],206 µM
same,IC50,[3],294 µM
same,pIC50,gp120/CD4,~5.63
same,"IC50 MAb binding inhibition, OKT4",[4],did not affect
"OC[C@@H]1CC[C@H](n2cnc3c(O)ncnc32)O1 [ddI, 2′,3′-Dideoxyinosine]",Table 8 readout of HIV-1 14aPre growth,HIV-1 14aPre; DDI 1.25 μM alone,36.5
same,Table 8 readout of HIV-1 14aPre growth,HIV-1 14aPre; DDI 5 μM alone,11.2
same,Table 8 readout of HIV-1 14aPre growth,HIV-1 14aPre; DDI 10 μM alone,1.2
same,"Antiviral Activity ID50, IIIB","HIV-1, strain HTLV-IIIB",1.2 µg/mL
dextran sulfate,IC50 syncytium inhibition (HL2/3),[1],0.9 µg/mL
same,IC50 gp120/CD4 binding inhibition (ELISA),"gp120/CD4; recombinant gp120 IIIB, recombinant sCD4, PIC 024.4 based on 100% polymer by weight",inactive
same,IC50 gp120/whole blood binding inhibition,[5],≥ 1000 µg/mL
same,IC50 BIAcore inhibition,gp120 (SF2 isolate)/sCD4,inactive
same,activity against many monocytotropic isolates,monocytotropic isolates,inactive
same,IC50 gp120/CEM binding inhibition,[6],23 µg/mL
same,"Antiviral Activity ID50, IIIB",IIIB; AHT 8,8 µg/mL
same,"Antiviral Activity ID50, IIIB",IIIB; TM 11,4 µg/mL
